# Patent publication US12265087B2, “Olfactory receptor as microglia marker and use thereof” (DAEGU GYEONGBUK INSTITUTE OF SCIENCE AND TECHNOLOGY, priority 2019, dated 2025)
# Entries after “also recorded” stand apart in the source; their conditions may differ.
# How the values were obtained:
# [1] = tested on: microglia; experiment: GFP intensity / morphology of microglia in CX3CR1 GFP/+ mice; assay type: in vivo, mouse; settings: 2-PF treated CX3CR1 GFP/+ mice
# Description: To analyze a morphological change in microglia activation, 9-week-old CX3CR1^GFP/+ mice were used. Two hours after an IP containing or not containing 2-PF was injected into two mice, brain sections were collected by cryosection. A 40-μm-thick brain tissue fragment was prepared by […], and a GFP signal of microglia was measured using a 40× magnification confocal microscope. A GFP-pixel signal of microglia was analyzed using Zeiss ZEN Software (Zeiss).
# [2] = tested on: primary microglia; experiment: ROS / superoxide generation in primary microglia; assay type: cell-based, mouse
# Description: Superoxide concentrations were calculated by measuring the degree ofcytochrome c reduction using a VersaMax microplate reader (Babior et al., 1973). Microglia were cultured in a 96 well plate at a concentration of 1.0×10^5 cells/well, and the microglia were activated by a 10 μM ATP solution containing 2-PF and cytochrome c, or a solution in which Sup is mixed with cytochalasin B (5 μM; #C66762; Sigma Aldrich). The concentration of ROS was measured through a change in light absorption every minute for 25 minutes at 550 nm.
# ROS levels were measured using 2′,7′-dichlorodihydrofluorescein diacetate (DCF-DA, #D6883; Sigma Aldrich) by a previously described method with minor modifications (Bae et al., 2001). More specifically, primary microglia were seeded in 24-well plates (5.0×10^5 cells/well) for 24 hours, and then treated with 10 μM DCF-DA at 37° C. for 30 minutes. One plate was treated with 2-PF, and the other one was not. The cells in each well were measured using a flow cytometer (FACS Accuri™ C6; BD Biosciences). MFI was measured as described above.
# [3] = tested on: Hana3A cells expressing Olfr111; experiment: Boyden chamber chemotaxis assay, Hana3A cells expressing Olfr111; assay type: cell-based; settings: 2-PF 10, 100 and 1000 μM
# Description: Chemotaxis was measured using a multi-well Boyden chamber. More specifically, a polycarbonate filter (8 μm pore; #101-8; Neuroprobe) was coated with […] fibronectin (Sigma-Aldrich) in PBS for 2 hours, and the coated filter was installed in a Boyden chamber. In addition, the bottom side of a plate was filled with serum-free DMEM containing 2-PF or a culture supernatant. Subsequently, microglia or Hana3A cells were transfected with an OR construct, and then suspended in serum-free DMEM. The microglia were kept at 37° C. for 4 hours, and the Hana3A cells for 8 hours. Cells that migrated to the bottom surface were fixed with 4% PFA, and stained with hematoxylin for 10 minutes. The migrated cells were counted under a light microscope in five randomly selected fixed […] fields (200×) using a scored eyepiece. A chemotaxis index was defined as the migrated cell number normalized against the untreated group.
# [4] = molecular target: T1, Olfr110 (Mus musculus, UniProt A2RT31); experiment: Luciferase assay in Hana3A cells transfected with Olfr110; assay type: cell-based
# T1 construct: Full-length odorant receptor genes from mouse and human genomic DNAs were amplified using appropriate primers; Lucy (N); Flag (N); Rho (N); expressed in transfected cells; host or cells: Hana3A cells, co-transfected with RTP1S, pCRELuc and pRL-SV40
# T1 sequence (A2RT31 1-317): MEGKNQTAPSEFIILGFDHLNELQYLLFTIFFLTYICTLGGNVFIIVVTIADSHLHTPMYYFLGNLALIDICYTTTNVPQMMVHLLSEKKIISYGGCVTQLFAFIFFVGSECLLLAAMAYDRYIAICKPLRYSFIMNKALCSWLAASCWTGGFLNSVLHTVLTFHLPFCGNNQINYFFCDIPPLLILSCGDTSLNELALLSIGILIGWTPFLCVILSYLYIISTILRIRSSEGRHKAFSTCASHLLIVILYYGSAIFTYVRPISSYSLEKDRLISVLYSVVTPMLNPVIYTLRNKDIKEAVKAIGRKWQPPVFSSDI
# Description: (§1) A Dual-Glo luciferase assay system (#E2940; Promega) was used for OR ligand screening. More specifically, Hana3A cells were seeded in white polystyrene 96-well plates (#353296; BD Biosciences) one day before transfection. pCRELuc (1 μg; #219076; Agilent Technologies), pRL-SV40 (1 μg; #E2231; Promega), RTP1S (1 μg), and OR (6 μg; or Mock) vectors were transfected for 24 hours in each plate. Analysis was performed using Lipofectamine 2000 (#11668-019; Thermo Fisher Scientific) according to the manufacturer's protocols. Transfected cells were stimulated at 37° C. for 4 hours with various concentrations of diluted odorants in a CD293 medium (#11913-019; Thermo Fisher Scientific). The activity of luciferase was normalized to that of Renilla luciferase. Luminescence was measured using a SpectraMax L microplate reader (Molecular Devices).
# [5] = tested on: Olfr111; experiment: Luciferase assay in Hana3A cells transfected with Olfr111; assay type: cell-based, mouse; settings: Hana3A cells
# Description: as §1
# [6] = tested on: Olfr110; experiment: Immunostaining of Olfr110 expression after treatment; assay type: cell-based, mouse
# Description: Subsequently, cells were washed in PBS, and fixed with 4% paraformaldehyde (#6148; Sigma Aldrich) for 5 minutes. The cells were then incubated in PBS containing 4% normal horse serum (#008-000-121; Jackson ImmunoResearch) and 0.1% TWEEN® 20 (#P9416; Sigma-Aldrich) at room temperature for 1 hour. Afterward, the cells were […] at 4° C. overnight with primary antibodies listed below. The antibodies are as follows: Olfr110 (rabbit-anti-Olfr110; 1:10,000; #ab177327; Abcam), Iba-1 (goat-anti-Iba-1; 1:1,000; #ab5076; Abcam), and GFAP (mouse-anti-GFAP; 1:1,000; #556330; BD Biosciences). Samples were incubated in a PBS solution containing 0.1% TWEEN® 20 (#P9416; Sigma-Aldrich) with secondary antibodies at room temperature for 1 hour. The secondary antibodies are as follows: Cy3-conjugated donkey anti-rabbit IgG (1:1,000; #711-165-152; Jackson ImmunoResearch), Alexa488-conjugated donkey anti-goat IgG (1:1,000; #705-545-147; Jackson ImmunoResearch), and Alexa488-conjugated donkey anti-mouse IgG (1:1,000; #715-545-150; Jackson ImmunoResearch). Afterward, the cells were mounted with a Vectashield fluorescent material containing DAPI (#H-1200; Vector Laboratories), and images were obtained using a confocal laser scanning microscope, LSM 700, and the ZEN software (Zeiss). […]
compound,measurement,setting,value
"CCCCCc1ccco1 [2-PF, 2-pentylfuran]",intensity of GFP expression of microglia,[1],highly increased
same,ROS generation on top of Sup MOI 5,[2]; 500 μM 2-PF with Sup MOI 5,further increased
same,ROS secretion,"[2]; 100, 300 and 500 μM",significantly increased in a concentration-dependent manner
same,mobility of Olfr111 cells (chemotaxis assay),[3],increased in mobility in a concentration-dependent manner
same,mode of action at Olfr110,[4],agonist
same,reactivity with Olfr110 (relative luciferase activity),[4]; Hana3A cells,selective ligands; also recorded: showed the highest reactivity with Olfr110
same,reactivity with Olfr111 (relative luciferase activity),[5],selective ligands; also recorded: showed reactivity
same,Olfr110 protein level,[6],significantly increases
